In PubChem BioAssay AID1963433 (Molecular Pharmacology Branch, DTP, NCI, 2024):
Several values for one entry are separate records, joined by “and”; a condition that tells them apart may be missing. Equal entries are not always repeated.

System: 772245-204-R-J1-PDC complex spheroid growth
Assay: Anticancer human tumor 772245-204-R-J1-PDC patient-derived rhabdomyosarcoma cell line growth inhibition [Asc]
Settings: for viability, T/C: stronger effect = lower value
Procedure, shortened: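 Tumor cells were grown as complex spheroids with human endothelial cells (HUVEC) and human mesenchymal stem cells as stroma. Agents were tested alone and in combination, in half-log steps down from the clinical Cmax, or from 10 microM where Cmax was unknown.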

[1] = curve of first compound, second compound 0.1 µM
[2] = curve of first compound, second compound 0.316 µM
[3] = curve of first compound, second compound 1 µM
[4] = second compound 0.1 µM, first compound 0.0316 µM
[5] = second compound 0.1 µM, first compound 0.1 µM
[6] = second compound 0.1 µM, first compound 0.316 µM
[7] = second compound 0.1 µM, first compound 1 µM
[8] = second compound 0.316 µM, first compound 0.0316 µM
[9] = second compound 0.316 µM, first compound 0.1 µM
[10] = second compound 0.316 µM, first compound 0.316 µM
[11] = second compound 0.316 µM, first compound 1 µM
[12] = second compound 1 µM, first compound 0.0316 µM
[13] = second compound 1 µM, first compound 0.1 µM
[14] = second compound 1 µM, first compound 0.316 µM
[15] = second compound 1 µM, first compound 1 µM
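Note: compound exposure lasted seven days.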
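Throughout, for viability, T/C: 100% = DMSO vehicle control viability.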

## O=C(c1ccc(F)c(F)c1Nc1ccc(I)cc1F)N1CC(O)([C@@H]2CCCCN2)C1 + CNC(C)C(=O)NC1CN(S(=O)(=O)c2cccc(S(=O)(=O)N3CCC4CCC(C(=O)NC(c5ccccc5)c5ccccc5)N4C(=O)C(NC(=O)C(C)NC)C3)c2)CCC2CCC(C(=O)NC(c3ccccc3)c3ccccc3)N2C1=O
Curve of first compound, second compound 0.01 µM
  IC50: > 1000 nM
Curve of first compound, second compound 0.0316 µM
  IC50: > 1000 nM
[1]
  IC50: > 1000 nM
[2]
  IC50: > 1000 nM
[3]
  IC50: > 1000 nM
Second compound 0.01 µM, first compound 0.00316 µM
  viability, T/C: 93.1%
Second compound 0.01 µM, first compound 0.01 µM
  viability, T/C: 85.4%
Second compound 0.01 µM, first compound 0.0316 µM
  viability, T/C: 93.3%
Second compound 0.01 µM, first compound 0.1 µM
  viability, T/C: 84.8%
Second compound 0.01 µM, first compound 0.316 µM
  viability, T/C: 97.9%
Second compound 0.01 µM, first compound 1 µM
  viability, T/C: 105%
Second compound 0.0316 µM, first compound 0.00316 µM
  viability, T/C: 98.3%
Second compound 0.0316 µM, first compound 0.01 µM
  viability, T/C: 90.7%
Second compound 0.0316 µM, first compound 0.0316 µM
  viability, T/C: 95.2%
Second compound 0.0316 µM, first compound 0.1 µM
  viability, T/C: 93.2%
Second compound 0.0316 µM, first compound 0.316 µM
  viability, T/C: 101%
Second compound 0.0316 µM, first compound 1 µM
  viability, T/C: 95.4%
Second compound 0.1 µM, first compound 0.00316 µM
  viability, T/C: 93.3%
Second compound 0.1 µM, first compound 0.01 µM
  viability, T/C: 84.8%
[4]
  viability, T/C: 90.1%
[5]
  viability, T/C: 87.6%
[6]
  viability, T/C: 103%
[7]
  viability, T/C: 77.9%
Second compound 0.316 µM, first compound 0.00316 µM
  viability, T/C: 91.7%
Second compound 0.316 µM, first compound 0.01 µM
  viability, T/C: 88.1%
[8]
  viability, T/C: 96.8%
[9]
  viability, T/C: 99.8%
[10]
  viability, T/C: 103%
[11]
  viability, T/C: 112%
Second compound 1 µM, first compound 0.00316 µM
  viability, T/C: 100%
Second compound 1 µM, first compound 0.01 µM
  viability, T/C: 89.7%
[12]
  viability, T/C: 88.8%
[13]
  viability, T/C: 92%
[14]
  viability, T/C: 94.5%
[15]
  viability, T/C: 97.6%

## C#Cc1c(F)ccc2cc(O)cc(-c3ncc4c(N5CC6CCC(C5)N6)nc(OCC56CCCN5CC(F)C6)nc4c3F)c12 (centres undefined)
Compound 0.0316 µM
  viability, T/C: 102% and 92.9% and 100%
Compound 0.1 µM
  viability, T/C: 101% and 80.2% and 97.7%
Compound 0.316 µM
  viability, T/C: 93% and 86.2% and 90.3%
Compound 1 µM
  viability, T/C: 106% and 74.9% and 95.2%
Compound 3.16 µM
  viability, T/C: 117% and 85.7% and 91.6%
Compound 10 µM
  viability, T/C: 109% and 66.4% and 75.8%
Curve of compound
  IC50: > 10000 nM

## C#Cc1c(F)ccc2cc(O)cc(-c3ncc4c(N5CC6CCC(C5)N6)nc(OCC56CCCN5CC(F)C6)nc4c3F)c12 (centres undefined) + Cc1c(S(C)(=O)=O)c(-c2cc(F)cc(N3CCN(c4ccc(NS(=O)(=O)c5ccc(NC(CCN6CCC(C(=O)OCCCP(=O)(O)O)CC6)CSc6ccccc6)c(S(=O)(=O)C(F)(F)F)c5)cc4)CC3)c2)c(-c2ccc(Cl)cc2)n1C(C)C
[1]
  IC50: 9710 nM
[2]
  IC50: 2030 nM
[3]
  IC50: 3740 nM
Curve of first compound, second compound 3.16 µM
  IC50: < 31.6 nM
Curve of first compound, second compound 10 µM
  IC50: 1030 nM
[4]
  viability, T/C: 72.8%
[5]
  viability, T/C: 93.2%
[6]
  viability, T/C: 85.6%
[7]
  viability, T/C: 71.6%
Second compound 0.1 µM, first compound 3.16 µM
  viability, T/C: 72.7%
Second compound 0.1 µM, first compound 10 µM
  viability, T/C: 49%
[8]
  viability, T/C: 60.4%
[9]
  viability, T/C: 66.2%
[10]
  viability, T/C: 62.3%
[11]
  viability, T/C: 56%
Second compound 0.316 µM, first compound 3.16 µM
  viability, T/C: 46.3%
Second compound 0.316 µM, first compound 10 µM
  viability, T/C: 38.2%
[12]
  viability, T/C: 49.8%
[13]
  viability, T/C: 55.4%
[14]
  viability, T/C: 51.5%
[15]
  viability, T/C: 56.8%
Second compound 1 µM, first compound 3.16 µM
  viability, T/C: 54.1%
Second compound 1 µM, first compound 10 µM
  viability, T/C: 29.7%
Second compound 3.16 µM, first compound 0.0316 µM
  viability, T/C: 49.8%
Second compound 3.16 µM, first compound 0.1 µM
  viability, T/C: 46.7%
Second compound 3.16 µM, first compound 0.316 µM
  viability, T/C: 47.1%
Second compound 3.16 µM, first compound 1 µM
  viability, T/C: 37%
Second compound 3.16 µM, first compound 3.16 µM
  viability, T/C: 30.7%
Second compound 3.16 µM, first compound 10 µM
  viability, T/C: 13.8%
Second compound 10 µM, first compound 0.0316 µM
  viability, T/C: 44%
Second compound 10 µM, first compound 0.1 µM
  viability, T/C: 55.5%
Second compound 10 µM, first compound 0.316 µM
  viability, T/C: 44%
Second compound 10 µM, first compound 1 µM
  viability, T/C: 58.3%
Second compound 10 µM, first compound 3.16 µM
  viability, T/C: 34%
Second compound 10 µM, first compound 10 µM
  viability, T/C: 18.5%

## NC1CCC(NC2CC2c2ccccc2)CC1 (centres undefined)
Compound 0.000316 µM
  viability, T/C: 83.9% and 103% and 99%
Compound 0.001 µM
  viability, T/C: 81.5% and 83.9% and 100%
Compound 0.00316 µM
  viability, T/C: 99% and 87.2% and 107%
Compound 0.01 µM
  viability, T/C: 83.2% and 87% and 97.1%
Compound 0.0316 µM
  viability, T/C: 84.2% and 98.8% and 103%
Compound 0.1 µM
  viability, T/C: 77.9% and 70.9% and 91.6%
Curve of compound
  IC50: > 100 nM
